Legend:
Assay type in all cases: in vivo
[1] = system: foxtail, green (green foxtail, Setaria viridis); assay: Test C pre-/postemergence: foxtail, green
Excerpt: (§1) Seeds of plant species selected from blackgrass (Alopecurus myosuroides), bromegrass, downy (downy bromegrass, Bromus tectorum), foxtail, green (green foxtail, Setaria viridis), ryegrass, Italian (Italian ryegrass, Lolium multiflorum), winter wheat (Triticum aestivum), wild oat (Avena fatua), galium (catchweed bedstraw, Galium aparine), bermudagrass (Cynodon dactylon), surinam grass (Brachiaria decumbens), cocklebur (common cocklebur, Xanthium strumarium), corn (Zea mays), large crabgrass (Digitaria sanguinalis), woolly cupgrass (Eriochloa villosa), foxtail, giant (giant foxtail, Setaria faberii), goosegrass (Eleusine indica), johnsongrass (Sorghum halepense), kochia (Kochia scoparia), lambsquarters (Chenopodium album), morningglory (Ipomoea coccinea), nightshade (eastern black nightshade, Solanum ptycanthum), nutsedge, yellow (yellow nutsedge, Cyperus esculentus), pigweed (Amaranthus retroflexus), ragweed (common ragweed, Ambrosia elation), soybean (Glycine max), common (oilseed) sunflower (Helianthus annuus), Russian thistle (Salsola kali) and velvetleaf (Abutilon theophrasti) were planted into a blend of loam soil and sand and treated preemergence with test chemicals formulated in a non-phytotoxic solvent mixture which included a surfactant.
(§2) At the same time, plants selected from these crop and weed species and also barley (winter barley, Hordeum vulgare), canarygrass (Phalaris minor), chickweed (common chickweed, Stellaria media) windgrass (Apera spica-venti) and deadnettle (henbit deadnettle, Lamium amplexicaule) were planted in pots containing Redi-Earth® planting medium (Scotts Company, 14111 Scottslawn Road, Marysville, Ohio 43041) comprising spaghnum peat moss, vermiculite, wetting agent and starter nutrients and treated with postemergence applications of test chemicals formulated in the same manner. Plants ranged in height from 2 to 18 cm (1- to 4-leaf stage) for postemergence treatments.
(§3) Treated plants and controls were maintained in a greenhouse for 13 to 15 days, after which time all species were compared to controls and visually evaluated. Plant response ratings, summarized in Table C, are based on a scale of 0 to 100 where 0 is no effect and 100 is complete control. A dash (-) response means no test result.

[2] = system: common (oilseed) sunflower (Helianthus annuus); assay: Test C pre-/postemergence: sunflower; conditions: Preemergence
Summary of the method: (§4)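 Preemergence on seeds in loam/sand, postemergence on 2–18 cm (1–4-leaf) plants in peat-based medium; compounds in non-phytotoxic solvent with surfactant. After 13–15 days in greenhouse, visual rating versus controls, 0 (no effect) to 100 (complete control).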

[3] = system: windgrass (Apera spica-venti); assay: Test C postemergence: windgrass
Summary of the method: (§5)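 Greenhouse pot test; foliar postemergence treatment at 1- to 4-leaf stage. Rated visually at 13 to 15 days on a 0–100 control scale relative to untreated plants.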

[4] = system: goosegrass (Eleusine indica); assay: Test C pre-/postemergence: goosegrass
Excerpt: as §1, §2, §3

[5] = system: surinam grass (Brachiaria decumbens); assay: Test C pre-/postemergence: surinam grass
Summary of the method: as §4

[6] = system: bermudagrass (Cynodon dactylon); assay: Test C pre-/postemergence: bermudagrass
Summary of the method: as §4

[7] = system: cocklebur (common cocklebur, Xanthium strumarium); assay: Test C pre-/postemergence: cocklebur
Summary of the method: as §4

[8] = system: bromegrass, downy (downy bromegrass, Bromus tectorum); assay: Test C pre-/postemergence: bromegrass, downy
Excerpt: as §1, §2, §3

[9] = system: woolly cupgrass (Eriochloa villosa); assay: Test C pre-/postemergence: woolly cupgrass
Excerpt: as §1, §2, §3

[10] = system: barley (winter barley, Hordeum vulgare); assay: Test C postemergence: barley
Summary of the method: as §5

[11] = Postemergence, 16 g ai/ha, scale 0 to 100, 0 no effect, 100 complete control
[12] = Postemergence, 31 g ai/ha, scale 0 to 100 (0 no effect, 100 complete control)
[13] = Postemergence, 62 g ai/ha, scale 0 to 100 (0 no effect, 100 complete control)
[14] = Postemergence, 125 g ai/ha, scale 0 to 100, 0 no effect, 100 complete control
[15] = Preemergence, 16 g ai/ha, scale 0 (no effect) to 100 (complete control)
[16] = Preemergence, 31 g ai/ha, scale of 0 to 100, 0 is no effect, 100 is complete control
[17] = Preemergence, 62 g ai/ha, scale of 0 to 100, 0 is no effect, 100 is complete control
[18] = Preemergence, 125 g ai/ha, scale 0 to 100, 0 no effect, 100 complete control
[19] = 31 g ai/ha, scale of 0 to 100, 0 is no effect, 100 is complete control
[20] = 62 g ai/ha, scale of 0 to 100, 0 is no effect, 100 is complete control
[21] = 125 g ai/ha, scale 0 to 100, 0 no effect, 100 complete control
[22] = 16 g ai/ha, scale 0 to 100, 0 no effect, 100 complete control
[23] = 31 g ai/ha, scale 0 to 100 (0 no effect, 100 complete control)
[24] = 62 g ai/ha, scale 0 to 100 (0 no effect, 100 complete control)
[25] = Preemergence, 62 g ai/ha, scale 0 to 100, 0 no effect, 100 complete control
[26] = Postemergence, 250 g ai/ha, scale 0 to 100
[27] = Preemergence, 250 g ai/ha, scale 0 to 100, 0 no effect, 100 complete control

COc1nn(-c2ccc(C(F)(F)F)cc2)nc1Cc1ccnc(C(F)(F)F)c1 [Compound 15, 4-[[5-methoxy-2-[4-(trifluoromethyl)phenyl]-2H-1,2,3-triazol-4-yl]methyl]-2-(trifluoromethyl)pyridine]
10: Plant response rating, Surinam Grass [5, 12] | Plant response rating, Surinam Grass [5, 15] | Plant response rating, Bromegrass, Downy [8, 11]
65: Plant response rating, Goosegrass [4, 14] | Plant response rating, Cocklebur [7, 18]
75: Plant response rating, Cocklebur [7, 14] | Plant response rating, Cupgrass, Woolly [9, 14]
30: Plant response rating, Foxtail, Green [1, 11] | Plant response rating, Bromegrass, Downy [8, 25] | Plant response rating, Barley [10, 22]
40: Plant response rating, Foxtail, Green [1, 12] | Plant response rating, Goosegrass [4, 13] | Plant response rating, Surinam Grass [5, 16] | Plant response rating, Bromegrass, Downy [8, 14]
20: Plant response rating, Windgrass [3, 22] | Plant response rating, Windgrass [3, 23]
25: Plant response rating, Sunflower [2, 21] | Plant response rating, Goosegrass [4, 12] | Plant response rating, Bromegrass, Downy [8, 12] | Plant response rating, Bromegrass, Downy [8, 16]
15: Plant response rating, Surinam Grass [5, 13] | Plant response rating, Bermudagrass [6, 13] | Plant response rating, Bromegrass, Downy [8, 15]
80: Plant response rating, Bromegrass, Downy [8, 18]
60: Plant response rating, Cocklebur [7, 13]
55: Plant response rating, Surinam Grass [5, 17]
85: Plant response rating, Foxtail, Green [1, 13] | Plant response rating, Foxtail, Green [1, 14] | Plant response rating, Windgrass [3, 24] | Plant response rating, Cupgrass, Woolly [9, 17]
50: Plant response rating, Surinam Grass [5, 14] | Plant response rating, Barley [10, 21]
45: Plant response rating, Cupgrass, Woolly [9, 16]
35: Plant response rating, Bermudagrass [6, 14] | Plant response rating, Bromegrass, Downy [8, 13] | Plant response rating, Barley [10, 23] | Plant response rating, Barley [10, 24]
95: Plant response rating, Foxtail, Green [1, 15] | Plant response rating, Foxtail, Green [1, 16] | Plant response rating, Cupgrass, Woolly [9, 18]
100: Plant response rating, Foxtail, Green [1, 17] | Plant response rating, Foxtail, Green [1, 18] | Plant response rating, Goosegrass [4, 15] | Plant response rating, Goosegrass [4, 16] | Plant response rating, Goosegrass [4, 17] | Plant response rating, Goosegrass [4, 18] | Plant response rating, Bermudagrass [6, 15] | Plant response rating, Bermudagrass [6, 16] | Plant response rating, Bermudagrass [6, 25] | Plant response rating, Bermudagrass [6, 18]
5: Plant response rating, Goosegrass [4, 11] | Plant response rating, Surinam Grass [5, 11] | Plant response rating, Bermudagrass [6, 11] | Plant response rating, Bermudagrass [6, 12] | Plant response rating, Cocklebur [7, 12] | Plant response rating, Cupgrass, Woolly [9, 11] | Plant response rating, Cupgrass, Woolly [9, 12] | Plant response rating, Cupgrass, Woolly [9, 13] | Plant response rating, Cupgrass, Woolly [9, 15]
90: Plant response rating, Windgrass [3, 21] | Plant response rating, Surinam Grass [5, 18]
0: Plant response rating, Sunflower ([2]; 16 g ai/ha, scale 0 (no effect) to 100 (complete control)) | Plant response rating, Sunflower [2, 19] | Plant response rating, Sunflower [2, 20] | Plant response rating, Cocklebur [7, 15] | Plant response rating, Cocklebur [7, 16]

Cc1nn(-c2ccc(C(F)(F)F)cn2)nc1Oc1ccnc(C(F)(F)F)c1 [Compound 23]
10: Plant response rating, Windgrass [3, 23] | Plant response rating, Goosegrass [4, 12] | Plant response rating, Goosegrass [4, 13] | Plant response rating, Surinam Grass [5, 13] | Plant response rating, Surinam Grass [5, 14] | Plant response rating, Bermudagrass [6, 13] | Plant response rating, Bromegrass, Downy [8, 27] | Plant response rating, Cupgrass, Woolly [9, 12] | Plant response rating, Cupgrass, Woolly [9, 13]
50: Plant response rating, Foxtail, Green [1, 26] | Plant response rating, Cocklebur [7, 26] | Plant response rating, Cupgrass, Woolly [9, 26]
20: Plant response rating, Barley [10, 21]
5: Plant response rating, Surinam Grass [5, 12] | Plant response rating, Bermudagrass [6, 12] | Plant response rating, Cocklebur [7, 18] | Plant response rating, Cocklebur [7, 27] | Plant response rating, Bromegrass, Downy [8, 12] | Plant response rating, Bromegrass, Downy [8, 13] | Plant response rating, Bromegrass, Downy [8, 14] | Plant response rating, Bromegrass, Downy [8, 26] | Plant response rating, Bromegrass, Downy [8, 18] | Plant response rating, Barley [10, 23]
95: Plant response rating, Goosegrass [4, 16] | Plant response rating, Cupgrass, Woolly [9, 16]
60: Plant response rating, Surinam Grass [5, 17]
40: Plant response rating, Cocklebur [7, 14]
0: Plant response rating, Sunflower [2, 19] | Plant response rating, Sunflower [2, 20] | Plant response rating, Sunflower [2, 21] | Plant response rating, Sunflower ([2]; 250 g ai/ha, scale 0 to 100, 0 no effect, 100 complete control) | Plant response rating, Cocklebur [7, 16] | Plant response rating, Cocklebur [7, 25] | Plant response rating, Bromegrass, Downy [8, 16] | Plant response rating, Bromegrass, Downy [8, 25]
15: Plant response rating, Windgrass [3, 24] | Plant response rating, Windgrass [3, 21] | Plant response rating, Windgrass ([3]; 250 g ai/ha, scale 0 to 100) | Plant response rating, Goosegrass [4, 14] | Plant response rating, Surinam Grass [5, 26] | Plant response rating, Surinam Grass [5, 16] | Plant response rating, Bermudagrass [6, 14] | Plant response rating, Cupgrass, Woolly [9, 14] | Plant response rating, Barley [10, 24]
25: Plant response rating, Cocklebur [7, 12] | Plant response rating, Cocklebur [7, 13]
30: Plant response rating, Foxtail, Green [1, 13] | Plant response rating, Goosegrass [4, 26] | Plant response rating, Bermudagrass [6, 26] | Plant response rating, Barley ([10]; 250 g ai/ha, scale 0 to 100)
100: Plant response rating, Foxtail, Green [1, 16] | Plant response rating, Foxtail, Green [1, 17] | Plant response rating, Foxtail, Green [1, 18] | Plant response rating, Foxtail, Green [1, 27] | Plant response rating, Goosegrass [4, 17] | Plant response rating, Goosegrass [4, 18] | Plant response rating, Goosegrass [4, 27] | Plant response rating, Surinam Grass [5, 18] | Plant response rating, Surinam Grass [5, 27] | Plant response rating, Bermudagrass [6, 16] | Plant response rating, Bermudagrass [6, 25] | Plant response rating, Bermudagrass [6, 18] | Plant response rating, Bermudagrass [6, 27] | Plant response rating, Cupgrass, Woolly [9, 17] | Plant response rating, Cupgrass, Woolly [9, 18] | Plant response rating, Cupgrass, Woolly [9, 27]
45: Plant response rating, Foxtail, Green [1, 14]
